Entries after “also recorded” stand apart in the source; their conditions may differ. Structures can show the parent of a compound that is named as a salt.
Key:
Format in all cases: physicochemical
[1] = Stability Test 2: storage under an open condition at 40° C. and 75% relative humidity (powder X-ray diffraction, HPLC related substances, appearance); conditions: 2 months; for Increased Amount of related substance: HPLC area normalization; for Change of Crystal form: powder X-ray diffraction
Method: (§1) The Form I crystal of the salt (A-1), the Form I crystal of the salt (A-2), the crystal of hydrochloride salt of the compound (B), the crystal of sebacate salt of the compound (B) and the crystal of adipate salt were stored under an open condition at 40° C. and 75% relative humidity, and the physical stability and the chemical stability of each crystal form were examined. The powder X-ray diffractions of the samples at the start of the specimens and 2 months later were measured in the same manner as in Test Example 1, and the physical stability of the crystal forms and the amounts of the related substances were measured using the following HPLC measurement conditions, thereby observing the chemical stability. At the same time, changes in appearance were also observed.
(§2) • Detector: Ultraviolet and visible absorptiometer/wavelength: 225 nm • Column: L-column2 ODS, 3 μm, 4.6×150 mm (manufactured by Chemicals Evaluation and Research Institute, Japan) • Column temperature: constant temperature around 30° C. • Flow rate: 1.0 mL/min • Mobile phase A: a solution (pH 6.9) in which potassium dihydrogen phosphate and dipotassium hydrogen phosphate are mixed in water so as to be each 10 mmol/L • Mobile phase B: acetonitrile • Mobile phase ratios • 0 to 25 minutes: mobile phase A/mobile phase B=79/21 • 25 to 45 minutes: mobile phase A/mobile phase B=79/21 to 25/75 (Gradient) • 45 to 50 minutes: mobile phase A/mobile phase B=25/75 • Injection volume: 5 μL • Sample cooler: 4° C. • Dissolution solvent: A mixed solution prepared by adding 20 parts of acetonitrile to 80 parts of a 10 mmol/L potassium dihydrogen phosphate aqueous solution adjusted to pH 3. • Sample solution: A liquid obtained by dissolving the specimen in the dissolution solvent and adjusting to about 1.0 mg/mL as the compound (B).
(§3) Excluding the peaks derived from the blank, the peak areas of the respective peaks were measured by an automatic integration method, and the values thereof were determined by an area normalization method.

[2] = Stability Test 1: storage under an open condition at 60° C. (powder X-ray diffraction, HPLC related substances, appearance); conditions: 2 months; for Increased Amount of related substance: HPLC area normalization; for Change of Crystal form: powder X-ray diffraction
Method: as §1, with “hydrochloric acid” for “hydrochloride salt”, “60° C.,” for “40° C. and 75% relative humidity,”
as §2, with “a 20” for “a 10”
as §3

[3] = Water adsorption and desorption test (IGA-Sorp); conditions: 25° C.
Method: The water adsorption and desorption behaviors of the Form I crystal of the salt (A-1), the crystal of hydrochloride salt of the compound (B) and the crystal of sebacate salt of the compound (B) were measured using IGA-Sorp (manufactured by HIDEN isochema) under the following conditions. The water adsorption and desorption isotherm of the Form I crystal of the salt (A-1) is shown in FIG. 11, and the water adsorption and desorption isotherm of hydrochloride salt of the compound (B) is shown in FIG. 12.
• Form I crystal of salt (A-1): 14.7 mg • Crystal of hydrochloride salt of compound (B): 10.4 mg • Crystal of sebacate salt of compound (B): 13.2 mg
Each specimen was placed in a water adsorption and desorption measurement device. The temperature and the humidity were set to 25° C./40% RH or 50% RH, and equilibration was conducted for 60 minutes or more to stabilize the mass.
The mass of each specimen subjected to mass equilibration was continuously measured while changing the relative humidity at every 5% RH in adsorption and desorption.
The mass % was expressed as a mass percentage of a mass change before and after adsorption (or desorption) based on a dry sample.

[4] = listed as Forn I crystal of the salt (A-2), Monosuccinate Salt

Structure (SMILES)	chemical stability (in words) [1]	Increased Amount of related substance [1]	Appearance ([1]; Sesquisuccinate Monohydrate)	Change of Crystal form ([1]; Sesquisuccinate Monohydrate)	chemical stability (in words) [2]	Increased Amount of related substance [2]	Appearance ([2]; Sesquisuccinate Monohydrate)	Change of Crystal form ([2]; Sesquisuccinate Monohydrate)	Change of water amount at adsorption ([3]; 50-90% RH, based on a dry sample) [mass %]	Change of water amount at desorption ([3]; 90-0% RH, based on a dry sample) [mass %]	hygroscopicity (in words) ([3]; water adsorption and desorption)	Appearance ([1]; Monosuccinate Salt)	Change of Crystal form ([1]; Monosuccinate Salt)	Appearance ([2]; Monosuccinate Salt)	Appearance [2, 4]	Change of Crystal form ([2]; Monosuccinate Salt)	Change of Crystal form [2, 4]
CCCN(C(=O)NCCN(C)C)C(=O)[C@@H]1C[C@@H]2Cc3c(sc(N)c3C#N)C[C@H]2N(C)C1 [Form I crystal of the salt (A-1), 1-{[(4aR,6R,8aR)-2-Amino-3-cyano-8-methyl-4,4a,5,6,7,8,8a,9-octahydrothieno[3,2-g]quinolin-6-yl]carbonyl}-3-[2-(dimethylamino)ethyl]-1-propylurea Sesquisuccinate Monohydrate]	chemically stable	+0.01%	no change in appearance; also recorded: No change in white	No change in crystal form	chemically stable	No increase	almost no change in appearance; also recorded: White (A slight coloration	No change in crystal form	0.3	0.8	does not exhibit hygroscopicity						
CCCN(C(=O)NCCN(C)C)C(=O)[C@@H]1C[C@@H]2Cc3c(sc(N)c3C#N)C[C@H]2N(C)C1.O=C(O)CCC(=O)O [Form I crystal of the salt (A-2), 1-{[(4aR,6R,8aR)-2-Amino-3-cyano-8-methyl-4,4a,5,6,7,8,8a,9-octahydrothieno[3,2-g]quinolin-6-yl]carbonyl}-3-[2-(dimethylamino)ethyl]-1-propylurea Monosuccinate Salt]	chemically stable	No increase			chemically stable	−0.05%						no change in appearance; also recorded: No change in white	No change in crystal form	almost no change in appearance	White (A slight coloration	No change in crystal form	No change
